Columns and labels:
[1] = target: T1, PDE3A catalytic domain (PDE3Acat) (Homo sapiens, UniProt Q14432); experiment: Phosphodiesterase inhibitory activity, recombinant PDE3Acat, [3H]cAMP; format: biochemical; details: 30° C. 20 minutes, read-out: IC50 (μmol/L) PDE3
T1 construct: isolate the cDNA of a PDE3A catalytic domain; made in house; host or cells: Sf9 insect cells (baculovirus, Bac-to-Bac / Gateway)

[2] = target: T2, PDE4Bcat (Homo sapiens, UniProt Q07343); experiment: Phosphodiesterase inhibitory activity, recombinant PDE4Bcat, [3H]cAMP; format: biochemical; details: 30° C. 20 minutes, read-out: IC50 (μmol/L) PDE4
T2 construct: made in house; host or cells: Sf9 insect cells (baculovirus, Bac-to-Bac / Gateway)

[3] = system: histamine-induced bronchoconstriction in guinea pigs; experiment: Histamine-induced bronchoconstriction reaction in guinea pigs; format: in vivo, guinea pig; details: Cavia porcellus, iv, 0.5 min, compound 0.3 mg/kg i.v., measured 30 seconds after administration, histamine 12.5 μg/kg i.v., read-out: Inhibition rate (histamine-induced bronchoconstriction)
Experimental: Guinea pigs were anesthetized with pentobarbital (30 mg/kg, i.p.). A cannula for intravenous administration, a cannula for collecting blood and measuring blood pressure, and a tracheal cannula were inserted into the left external jugular vein, right internal carotid artery, and trachea, respectively. The guinea pigs were maintained on artificial respiration under conditions of 60 times/min and 10 mL/kg/stroke. The overflowing air from the side branch of the tracheal cannula was measured by a bronchospasm transducer (Ugo-Basile) and recorded on a computer via Power Lab (ADInstruments Japan). The guinea pigs were immobilized with gallamine (10 mg/kg, i.v.), and histamine (12.5 μg/kg, i.v.) was administered at 10-minute intervals. After the histamine-induced bronchoconstriction became stable, the compound (0.3 mg/kg, i.v.) was administered. The histamine-induced bronchoconstriction reaction was measured 30 seconds after the compound administration to examine the bronchoconstriction inhibitory activity of the compound. The bronchoconstriction was recorded as the airflow value, and the results were represented by the ratio of the maximum value of the histamine-induced airflow 30 seconds after administration to the maximum value of the airflow before administration. Also, the test compounds dissolved in DMSO were used. Further, the indications were as follows: inhibition rate≧90% (+++), 90%>inhibition rate≧80% (++), and 80%>inhibition rate≧60% (+).

[4] = system: LPS acute inflammation model in rats; experiment: LPS acute inflammation model in rats (total leukocytes in BALF); format: in vivo, rat; details: 10 mg/kg orally one hour before LPS inhalation, BALF 3 hours after LPS inhalation
Experimental: 10 mg/kg of the compounds were orally administered to rats one hour before inhalation of a lipopolysaccharide from E. coli serotype 055:B5 (LPS), and the rats were made to inhale 50 ml of the LPS solution nebulized using a nebulizer for 30 minutes. Then, 3 hours after LPS inhalation, the rats were euthanized with 20% urethane (5 ml/rat, i.p.). 5 ml of physiological saline for bronchoalveolar lavage was injected into the bronchial tubes and alveoli through the airway, and the bronchial tubes and alveoli were washed three times using a 5 mL syringe. This operation was repeated twice, and the solution was collected as bronchoalveolar lavage fluid (BALF). The collected BALF was centrifuged at 1200 rpm and 4° C. for 10 minutes (Hirtachi; himac CR 5 DL). The pellet was re-suspended in 10 ml of a 0.1% bovine serum albumin-physiological saline, and an equivalent amount of Turk's solution was added thereto to stain leukocytes. The total number of leukocytes was counted under a microscope to calculate the inhibition rate. Further, the indications were as follows: inhibition rate≧80% (+++), 80%≧inhibition rate≧60% (++), and 60%>inhibition rate≧40% (+).

T1 sequence (Q14432 674-1093 limits assumed): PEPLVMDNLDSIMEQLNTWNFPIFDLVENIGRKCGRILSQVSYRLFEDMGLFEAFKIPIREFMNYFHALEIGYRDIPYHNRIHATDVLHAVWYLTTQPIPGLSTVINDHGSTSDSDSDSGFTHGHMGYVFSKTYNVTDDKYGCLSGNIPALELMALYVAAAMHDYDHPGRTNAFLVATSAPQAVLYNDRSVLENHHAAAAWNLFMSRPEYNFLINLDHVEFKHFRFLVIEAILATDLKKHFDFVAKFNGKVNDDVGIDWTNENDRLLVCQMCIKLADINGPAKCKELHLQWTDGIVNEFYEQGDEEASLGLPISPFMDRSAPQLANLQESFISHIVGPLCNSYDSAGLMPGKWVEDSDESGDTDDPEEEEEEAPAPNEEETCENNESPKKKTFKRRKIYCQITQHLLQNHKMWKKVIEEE
T2 sequence (Q07343 330-659 limits assumed): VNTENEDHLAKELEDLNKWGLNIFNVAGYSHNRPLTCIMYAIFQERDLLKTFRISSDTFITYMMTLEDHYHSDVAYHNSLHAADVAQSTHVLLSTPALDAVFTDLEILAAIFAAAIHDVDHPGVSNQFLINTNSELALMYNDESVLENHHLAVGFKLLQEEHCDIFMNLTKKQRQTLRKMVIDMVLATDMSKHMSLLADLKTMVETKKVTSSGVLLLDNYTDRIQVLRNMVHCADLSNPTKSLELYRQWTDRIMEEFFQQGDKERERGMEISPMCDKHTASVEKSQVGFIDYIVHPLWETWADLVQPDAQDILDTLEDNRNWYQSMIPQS

| SMILES | IC50 [1] [µmol/L] | IC50 [2] [µmol/L] | inhibition in vivo at 0.3 mg/kg [3] [%] | Inhibition rate (total number of leukocytes in BALF) [4] | Inhibition rate (total number of leukocytes in BALF) ([4]; 10 mg/kg) |
| --- | --- | --- | --- | --- | --- |
| CCc1ccc2c(C3=NN(CCCCOc4ccc(C5=NNC(=O)CC5C)c(F)c4F)C(=O)C3(C)C)ccc(OC)c2n1 (centres unmarked) [Example 209, 5-(2-Ethyl-8-methoxyquinolin-5-yl)-2-[4-[2,3-difluoro-4-(4-methyl-6-oxo-1,4,5,6-tetrahydropyridazin-3-yl)phenoxy]butyl]-4,4-dimethyl-2,4-dihydro-pyrazol-3-one] | < 0.01 | 0.01 to 0.1 | ≥ 90 | +++ (inhibition rate≧80%) | – |
| COc1ccc(C2=NN(CCCCOc3ccc(C4=NNC(=O)C4(C)C)c(F)c3F)C(=O)C2(C)C)c2ccc(C)nc12 [Example 197, 2-[4-[2,3-Difluoro-4-(4,4-dimethyl-5-oxo-4,5-dihydro-1H-pyrazol-3-yl)phenoxy]butyl]-5-(8-methoxy-2-methylquinolin-5-yl)-4,4-dimethyl-2,4-dihydro-pyrazol-3-one] | < 0.01 | 0.01 to 0.1 | ≥ 90 | +++ (inhibition rate≧80%) | – |
| CCc1ccc2c(C3=NN(CCCCOc4ccc(C5=NNC(=O)CC5C)cc4F)C(=O)C3(C)C)ccc(OC)c2n1 (centres unmarked) [Example 205, 5-(2-Ethyl-8-methoxyquinolin-5-yl)-2-[4-[2-fluoro-4-(4-methyl-6-oxo-1,4,5,6-tetrahydropyridazin-3-yl)phenoxy]butyl]-4,4-dimethyl-2,4-dihydro-pyrazol-3-one] | < 0.01 | 0.01 to 0.1 | ≥ 90 | +++ (inhibition rate≧80%) | – |
| CCc1ccc2c(C3=NN(CCCCOc4ccc(C5=NNC(=O)CC5C)c(F)c4F)C(=O)C3(C)C)ccc(OC)c2n1 (single isomer, unassigned; (-)) [Example 211, (−)-5-(2-ethyl-8-methoxyquinolin-5-yl)-2-[4-[2,3-difluoro-4-(4-methyl-6-oxo-1,4,5,6-tetrahydropyridazin-3-yl)phenoxy]butyl]-4,4-dimethyl-2,4-dihydro-pyrazol-3-one] | < 0.01 | 0.01 to 0.1 | ≥ 90 | – | ++ (80%≧inhibition rate≧60%) |
| CCc1ccc2c(C3=NN(CCCCOc4ccc(C5=NNC(=O)CC5C)cc4F)C(=O)C3(C)C)ccc(OC)c2n1 (single isomer, unassigned; (+)) [Example 206, (+)-5-(2-Ethyl-8-methoxyquinolin-5-yl)-2-[4-[2-fluoro-4-(4-methyl-6-oxo-1,4,5,6-tetrahydropyridazin-3-yl)phenoxy]butyl]-4,4-dimethyl-2,4-dihydro-pyrazol-3-one] | 0.1 to 1 | 0.01 to 0.1 | – | + (60%>inhibition rate≧40%) | – |
| CCc1ccc2c(C3=NN(CCCCOc4ccc(C5=NNC(=O)CC5C)c(F)c4F)C(=O)C3(C)C)ccc(OC)c2n1 (single isomer, unassigned; (+)) [Example 210, (+)-5-(2-Ethyl-8-methoxyquinolin-5-yl)-2-[4-[2,3-difluoro-4-(4-methyl-6-oxo-1,4,5,6-tetrahydropyridazin-3-yl)phenoxy]butyl]-4,4-dimethyl-2,4-dihydro-pyrazol-3-one] | < 0.01 | 0.01 to 0.1 | – | – | + (60%>inhibition rate≧40%) |
| COc1ccc(C2=NN(CCCCOc3ccc(C4=NNC(=O)CC4C)c(F)c3F)C(=O)C2(C)C)c2sc(C(F)(F)F)nc12 (centres unmarked) [Example 228, 2-[4-[2,3-Difluoro-4-(4-methyl-6-oxo-1,4,5,6-tetrahydropyridazin-3-yl)phenoxy]butyl]-5-(4-methoxy-2-trifluoromethylbenzo[d]thiazol-7-yl)-4,4-dimethyl-2,4-dihydro-pyrazol-3-one] | < 0.01 | < 0.01 | 80 to 90 | – | – |
| CCc1ccc2c(C3=NN(CCCCOc4ccc(C5=NNC(=O)CC5C)cc4F)C(=O)C3(C)C)ccc(OC)c2n1 (single isomer, unassigned; (-)) [Example 207, (−)-5-(2-ethyl-8-methoxyquinolin-5-yl)-2-[4-[2-fluoro-4-(4-methyl-6-oxo-1,4,5,6-tetrahydropyridazin-3-yl)phenoxy]butyl]-4,4-dimethyl-2,4-dihydro-pyrazol-3-one] | < 0.01 | 0.01 to 0.1 | ≥ 90 | + (60%>inhibition rate≧40%) | – |
| CCc1ccc2c(C3=NN(CCCCOc4ccc(C5=NNC(=O)C5(C)C)cc4F)C(=O)C3(C)C)ccc(OC)c2n1 [Example 202, 5-(2-Ethyl-8-methoxyquinolin-5-yl)-2-[4-[2-fluoro-4-(4,4-dimethyl-5-oxo-4,5-dihydro-1H-pyrazol-3-yl)phenoxy]butyl]-4,4-dimethyl-2,4-dihydro-pyrazol-3-one] | 0.01 to 0.1 | 0.01 to 0.1 | 60 to 80 | – | – |
| COc1ccc(C2=NN(CCCCOc3ccc(C4=NNC(=O)C4(C)C)c(F)c3F)C(=O)C2(C)C)c2cccnc12 [Example 213, 2-[4-[2,3-Difluoro-4-(4,4-dimethyl-5-oxo-4,5-dihydro-1H-pyrazol-3-yl)phenoxy]butyl]-5-(8-methoxyquinolin-5-yl)-4,4-dimethyl-2,4-dihydro-pyrazol-3-one] | < 0.01 | 0.01 to 0.1 | ≥ 90 | – | – |
| COc1ccc(C2=NN(CCCCOc3ccc(C4=NNC(=O)C4(C)C)c(F)c3F)C(=O)C2(C)C)c2[nH]c(C(F)(F)F)nc12 [Example 220, 2-[4-[2,3-Difluoro-4-(4,4-dimethyl-5-oxo-4,5-dihydro-1H-pyrazol-3-yl)phenoxy]butyl]-5-(4-methoxy-2-trifluoromethyl-1H-benzo[d]imidazol-7-yl)-4,4-dimethyl-2,4-dihydro-pyrazol-3-one] | 0.01 to 0.1 | < 0.01 | ≥ 90 | – | – |
| COc1ccc(C2=NN(CCCCOc3ccc(C4=NNC(=O)CC4)c(F)c3F)C(=O)C2(C)C)c2sc(C(F)(F)F)nc12 [Example 229, 2-[4-[2,3-Difluoro-4-(6-oxo-1,4,5,6-tetrahydropyridazin-3-yl)phenoxy]butyl]-5-(4-methoxy-2-trifluoromethylbenzo[d]thiazol-7-yl)-4,4-dimethyl-2,4-dihydro-pyrazol-3-one] | < 0.01 | < 0.01 | ≥ 90 | – | – |
| CCc1ccc2c(C3=NN(CCCCOc4ccc(C5=NNC(=O)CC5)cc4F)C(=O)C3(C)C)ccc(OC)c2n1 [Example 199, 5-(2-Ethyl-8-methoxyquinolin-5-yl)-2-[4-[2-fluoro-4-(6-oxo-1,4,5,6-tetrahydropyridazin-3-yl)phenoxy]butyl]-4,4-dimethyl-2,4-dihydro-pyrazol-3-one] | 0.01 to 0.1 | < 0.01 | ≥ 90 | – | – |
| CCc1ccc2c(C3=NN(CCCCOc4ccc(C5=NNC(=O)C5(C)C)c(F)c4F)C(=O)C3(C)C)ccc(OC)c2n1 [Example 203, 5-(2-Ethyl-8-methoxyquinolin-5-yl)-2-[4-[2,3-difluoro-4-(4,4-dimethyl-5-oxo-4,5-dihydro-1H-pyrazol-3-yl)phenoxy]butyl]-4,4-dimethyl-2,4-dihydro-pyrazol-3-one] | < 0.01 | 0.01 to 0.1 | ≥ 90 | – | – |
| CCc1ccc2c(C3=NN(CCCOc4ccc(C5=NNC(=O)CC5C)c(F)c4F)C(=O)C3(C)C)ccc(OC)c2n1 (centres unmarked) [Example 241, 5-(2-Ethyl-8-methoxyquinolin-5-yl)-2-[4-[2,3-difluoro-4-(4-methyl-6-oxo-1,4,5,6-tetrahydropyridazin-3-yl)phenoxy]propyl]-4,4-dimethyl-2,4-dihydro-pyrazol-3-one] | < 0.01 | 0.1 to 1 | ≥ 90 | – | – |

Reference: patent US20100130738A1 (priority 2007, published 2010)
